Assay results as given in the supplement of paper PMC10307832.

Key:
Assay in all cases: relative viability (nuclei count vs DMSO), 5 days (fraction); higher = more cells survive
[1] = compound: NS(=O)(=O)OC[C@@H]1C[C@@H](n2ccc3c(N[C@H]4CCc5ccccc54)ncnc32)C[C@@H]1O [MLN4924] + Cc1cc(Nc2cc(N3CCN(C)CC3)nc(Sc3ccc(NC(=O)C4CC4)cc3)n2)n[nH]1 [Tozasertib] (partner 0.1 µM)
Outline: (§1)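 A single step with final 0.05% Triton X-100, 1% formaldehyde and 1 ug/ml Hoechst fixed the cells and stained nuclei 5 days after treatment. Lung cancer cell lines in 1536-well plates had been treated by pin tool the day after seeding with one drug alone or a fixed anchor-drug dose plus five library-drug doses (not always all listed) in √10 steps, and nuclei were counted on 4× images. Relative viability is the ratio of nuclei in treated wells to nuclei in vehicle wells, taken as the median of duplicate plates.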

[2] = compound: NS(=O)(=O)OC[C@@H]1C[C@@H](n2ccc3c(N[C@H]4CCc5ccccc54)ncnc32)C[C@@H]1O [MLN4924] + Cc1nc(Nc2ncc(C(=O)Nc3c(C)cccc3Cl)s2)cc(N2CCN(CCO)CC2)n1 [Dasatinib] (partner 0.075 µM)
Outline: as §1

[3] = compound: CC[C@H](C)N1C=C(C2=C(C=C(C=C21)C3=CN=C(C=C3)N4CCNCC4)C(=O)NCC5=C(C=C(NC5=O)C)C)C [GSK126] + Cc1nc(NC(=O)N2CCC[C@H]2C(N)=O)sc1-c1ccnc(C(C)(C)C(F)(F)F)c1 [Alpelisib] (partner 2 µM)
Outline: as §1

[4] = compound: CC[C@H](C)N1C=C(C2=C(C=C(C=C21)C3=CN=C(C=C3)N4CCNCC4)C(=O)NCC5=C(C=C(NC5=O)C)C)C [GSK126] + O=C(CCCCCCC(=O)Nc1ccccc1)NO [Vorinostat] (partner 1 µM)
Outline: as §1

Row | Cell Line | relative viability ([1]; first compound 0.04 µM) | relative viability ([1]; first compound 0.1265 µM) | relative viability ([1]; first compound 0.4 µM) | relative viability ([1]; first compound 1.265 µM) | relative viability ([1]; first compound 4 µM) | relative viability ([2]; first compound 0.04 µM) | relative viability ([2]; first compound 0.1265 µM) | relative viability ([2]; first compound 0.4 µM) | relative viability ([2]; first compound 1.265 µM) | relative viability ([2]; first compound 4 µM) | relative viability ([3]; first compound 0.08 µM) | relative viability ([3]; first compound 0.253 µM) | relative viability ([3]; first compound 0.8 µM) | relative viability ([3]; first compound 2.53 µM) | relative viability ([3]; first compound 8 µM) | relative viability ([4]; first compound 0.08 µM) | relative viability ([4]; first compound 0.253 µM) | relative viability ([4]; first compound 0.8 µM) | relative viability ([4]; first compound 2.53 µM) | relative viability ([4]; first compound 8 µM)
1 | NCI-H2228 | 0.259 | 0.195 | 0.122 | 0.144 | 0.123 | 0.524 | 0.638 | 0.14 | 0.107 | 0.11 | 0.848 | 0.52 | 0.691 | 0.99 | 0.783 | 0.343 | 0.725 | 0.644 | 0.616 | 0.923
2 | A549 |  |  |  |  |  |  |  |  |  |  | 0.917 | 0.75 | 0.749 | 0.826 | 0.796 |  |  |  |  | 
3 | NCI-H358 | 0.108 | 0.0992 | 0.0886 | 0.0878 | 0.0989 | 0.211 | 0.31 | 0.25 | 0.113 | 0.0832 | 1.08 | 1.07 | 0.857 | 0.935 | 0.904 | 0.767 | 0.708 | 0.644 | 0.68 | 0.672
4 | NCI-H2342 | 0.416 | 0.455 | 0.533 | 0.445 | 0.408 | 0.343 | 0.344 | 0.339 | 0.354 | 0.355 |  |  |  |  |  | 0.82 | 0.753 | 0.74 | 0.725 | 0.857
5 | NCI-H2087 | 0.189 | 0.257 | 0.244 | 0.0576 | 0.0697 | 0.742 | 0.574 | 0.533 | 0.126 | 0.0652 | 0.993 | 1.21 | 1.26 | 0.919 | 1.05 | 0.847 | 0.523 | 0.652 | 0.652 | 1.15
6 | NCI-H596 | 0.819 | 0.987 |  | 0.514 | 0.528 | 0.623 | 0.594 |  | 0.644 | 0.744 | 0.681 | 0.445 | 0.397 | 0.51 | 0.556 | 0.613 | 0.55 | 0.746 | 0.577 | 0.502
7 | ChaGo-K-1 | 0.22 | 0.174 | 0.221 | 0.184 | 0.158 | 0.414 | 0.376 | 0.323 | 0.184 | 0.17 |  |  |  |  |  | 0.767 | 0.736 | 0.747 | 0.825 | 0.763
8 | SW 1573 | 0.235 | 0.207 | 0.0978 | 0.0941 | 0.0688 | 0.697 | 0.634 | 0.247 | 0.0507 | 0.0578 | 0.725 | 0.811 | 0.819 | 0.773 | 0.786 | 1.02 | 0.704 | 0.681 | 0.735 | 0.852
9 | LCLC-97TM1 | 0.222 | 0.158 | 0.172 | 0.121 | 0.112 | 1.01 | 0.683 | 0.767 | 0.113 | 0.104 | 0.254 |  | 0.22 | 0.374 | 0.217 | 0.771 | 0.8 | 0.717 | 0.812 | 0.691
10 | NCI-H1650 | 0.319 | 0.299 | 0.341 | 0.203 | 0.164 | 0.41 | 0.291 | 0.267 | 0.166 | 0.179 |  |  |  |  |  | 0.678 | 0.546 | 0.605 | 0.431 | 0.681
11 | NCI-H522 | 0.503 | 0.502 | 0.458 | 0.363 | 0.304 | 0.845 | 0.863 | 0.652 | 0.546 | 0.437 |  |  |  |  |  | 0.888 | 0.887 | 0.954 | 1.04 | 0.92
12 | Calu-6 |  |  |  |  |  |  |  |  |  |  | 1.04 | 0.983 | 1 | 1.01 | 1.07 |  |  |  |  | 
13 | IA-LM |  |  |  |  |  |  |  |  |  |  | 0.893 | 0.927 | 0.784 | 0.724 | 0.664 | 1.06 | 0.797 | 0.941 | 0.929 | 0.853
14 | EBC-1 |  |  |  |  |  |  |  |  |  |  | 1.03 | 0.792 | 0.783 | 0.729 | 0.762 |  |  |  |  | 
15 | SW 900 | 0.625 | 0.474 | 0.435 | 0.171 | 0.114 | 0.51 | 0.433 | 0.576 | 0.294 | 0.139 |  |  |  |  |  | 0.421 | 0.546 | 0.432 | 0.39 | 0.566
16 | NCI-H1792 |  |  |  |  |  | 0.725 | 0.819 | 1.03 | 0.902 | 0.762 | 0.703 | 0.77 | 0.78 | 0.761 | 0.636 |  |  |  |  | 
17 | NCI-H1703 |  |  |  |  |  |  |  |  |  |  | 0.364 | 0.343 | 0.36 | 0.417 | 0.482 |  |  |  |  | 
18 | NCI-H1563 |  |  |  |  |  | 0.67 | 0.819 | 0.714 | 0.446 | 0.426 | 1.02 | 0.988 | 1.02 | 0.807 | 0.828 |  |  |  |  | 
19 | NCI-H1623 | 0.42 | 0.372 | 0.398 | 0.203 | 0.195 | 0.626 | 0.573 | 0.341 | 0.227 | 0.183 |  |  |  |  |  |  |  |  |  | 
